Measured values as given in patent US20260068885A1, “HERBICIDAL COMPOSITIONS” (BAYER AKTIENGESELLSCHAFT, priority 2022, published 2026).

Assays:
Assay in all cases: Post-emergence herbicidal action against harmful plants (greenhouse)
Type in all cases: in vivo
[1] = tested on: Pharbitis purpurea (PHBPU)
[2] = tested on: Xanthium strumarium (XANST)
[3] = tested on: Polygonum convolvulus (POLCO)
Solanum nigrum (SOLNI) = tested on: Solanum nigrum (SOLNI)
Protocol: (§1) Seeds of monocotyledonous and dicotyledonous weed and crop plants are laid out in sandy loam soil in wood-fibre pots, covered with soil and cultivated in a greenhouse under good growth conditions. 2 to 3 weeks after sowing, the test plants are treated at the one-leaf stage. The compounds of the invention, formulated in the form of wettable powders (WP) or as emulsion concentrates (EC), are then sprayed onto the green parts of the plants in the form of an aqueous suspension or emulsion at a water application rate equivalent to 600 to 800 l/ha, with addition of 0.2% wetting agent. After the test plants have been […], the action of the preparations is assessed visually in comparison to untreated controls (herbicidal action in percent (%): 100% activity=the plants have died, 0% activity=like control plants). […] The tables below illustrate, in an illustrative manner, the post-emergence herbicidal action of the compounds of the invention, the herbicidal activity being stated in percent.
(§2) In the tables that follow, the abbreviations mean the following: • E: means the synergism value to be expected according to the Colby formula. • Δ SYN: means the difference between the actual and expected synergism value. • DAT: means days after treatment.

[4] = tested on: Erigeron bonariensis (ERIBO)
Protocol: as §1, §2

Setaria viridis (SETVI) = tested on: Setaria viridis (SETVI)
Protocol: as §1, §2

[5] = tested on: Abutilon theophrasti (ABUTH)
Protocol: as §1, §2

Cyperus iria (CYPIR) = tested on: Cyperus iria (CYPIR)
Protocol: as §1, §2

[6] = tested on: Euphorbia heterophylla (EPHHL); settings: for Herbicidal efficacy: EPHHL 21 DAT
Protocol: (§3) Seeds of monocotyledonous and dicotyledonous weed and crop plants are laid out in sandy loam soil in wood-fibre pots, covered with soil and cultivated in a greenhouse under good growth conditions. 2 to 3 weeks after sowing, the test plants are treated at the one-leaf stage. The compounds of the invention, formulated in the form of wettable powders (WP) or as emulsion concentrates (EC), are then sprayed onto the green parts of the plants in the form of an aqueous suspension or emulsion at a water application rate equivalent to 600 to 800 l/ha, with addition of 0.2% wetting agent. After the test plants have been left to stand in the greenhouse under optimal growth conditions for about 3 weeks, the action of the preparations is assessed visually in comparison to untreated controls (herbicidal action in percent (%): 100% activity=the plants have died, 0% activity=like control plants). […] The tables below illustrate, in an illustrative manner, the post-emergence herbicidal action of the compounds of the invention, the herbicidal activity being stated in percent.
as §2

[7] = tested on: Brachiaria platyphylla (BRAPP)
Protocol: as §3, §2

Emex australis (EMEAU) = tested on: Emex australis (EMEAU)
Protocol: as §3, §2

[8] = tested on: Sorghum halepense (SORHA)
Protocol: as §3, §2

[9] = tested on: Xanthium strumarium (XANST); remark: listed apart in the source
Protocol: as §3, §2

[10] = application rate 2 g a.i./ha, 21 DAT

Cc1nnc(NC(=O)c2ccc(C(F)(F)F)c([S@+](C)[O-])c2Cl)o1 [I-5]
20%: Herbicidal efficacy ([1]; PHBPU 10 DAT, 2 g a.i./ha) | Herbicidal efficacy [%] against XANST 10 DAT ([2]; application rate 0.5 g a.i./ha) | Herbicidal efficacy (Solanum nigrum (SOLNI); SOLNI 10 DAT, 0.5 g a.i./ha) | Herbicidal efficacy (Solanum nigrum (SOLNI); SOLNI 21 DAT, 2 g a.i./ha) | Herbicidal efficacy [%] against SOLNI 10 DAT (Solanum nigrum (SOLNI); application rate 0.5 g a.i./ha) | Herbicidal efficacy [%] against SOLNI 21 DAT (Solanum nigrum (SOLNI); application rate 2 g a.i./ha) | Herbicidal efficacy (Setaria viridis (SETVI); SETVI 10 DAT, 0.5 g a.i./ha) | Herbicidal efficacy (Setaria viridis (SETVI); SETVI 21 DAT, 2 g a.i./ha) | Herbicidal efficacy ([5]; ABUTH 10 DAT, 0.5 g a.i./ha) | Herbicidal efficacy (Emex australis (EMEAU); EMEAU 10 DAT, 0.5 g a.i./ha) | Herbicidal efficacy (Emex australis (EMEAU); EMEAU 10 DAT, 2 g a.i./ha) | Herbicidal efficacy [%] against EMEAU 21 DAT (Emex australis (EMEAU); application rate 0.5 g a.i./ha) | Herbicidal efficacy [%] against SORHA 10 DAT ([8]; application rate 2 g a.i./ha) | Herbicidal efficacy [%] against XANST 21 DAT ([9]; application rate 2 g a.i./ha)
88%: Herbicidal efficacy [%] against EMEAU 21 DAT (Emex australis (EMEAU); application rate 2 g a.i./ha)
0%: Herbicidal efficacy ([1]; PHBPU 10 DAT, 0.5 g a.i./ha) | Herbicidal efficacy ([1]; PHBPU 21 DAT, 0.5 g a.i./ha) | Herbicidal efficacy ([1]; PHBPU 21 DAT, 2 g a.i./ha) | Herbicidal efficacy ([3]; POLCO 10 DAT, 0.5 g a.i./ha) | Herbicidal efficacy ([3]; POLCO 10 DAT, 2 g a.i./ha) | Herbicidal efficacy ([3]; POLCO 21 DAT, 0.5 g a.i./ha) | Herbicidal efficacy ([3]; POLCO 21 DAT, 2 g a.i./ha) | Herbicidal efficacy (Solanum nigrum (SOLNI); SOLNI 21 DAT, 0.5 g a.i./ha) | Herbicidal efficacy [%] against SOLNI 21 DAT (Solanum nigrum (SOLNI); application rate 0.5 g a.i./ha) | Herbicidal efficacy ([4]; ERIBO 10 DAT, 0.5 g a.i./ha) | Herbicidal efficacy ([4]; ERIBO 21 DAT, 0.5 g a.i./ha) | Herbicidal efficacy ([4]; ERIBO 21 DAT, 2 g a.i./ha) | Herbicidal efficacy ([6]; 0.5 g a.i./ha) | Herbicidal efficacy ([7]; BRAPP 10 DAT, 0.5 g a.i./ha) | Herbicidal efficacy ([7]; BRAPP 21 DAT, 0.5 g a.i./ha) | Herbicidal efficacy ([7]; BRAPP 21 DAT, 2 g a.i./ha) | Herbicidal efficacy (Emex australis (EMEAU); EMEAU 21 DAT, 0.5 g a.i./ha) | Herbicidal efficacy [%] against SORHA 10 DAT ([8]; application rate 0.5 g a.i./ha) | Herbicidal efficacy [%] against SORHA 21 DAT ([8]; application rate 0.5 g a.i./ha)
90%: Herbicidal efficacy [%] against SORHA 10 DAT ([8]; application rate 2 g a.i./ha, table with flufenoximacil)
60%: Herbicidal efficacy (Solanum nigrum (SOLNI); SOLNI 10 DAT, 2 g a.i./ha) | Herbicidal efficacy [%] against SOLNI 10 DAT (Solanum nigrum (SOLNI); application rate 2 g a.i./ha) | Herbicidal efficacy ([5]; ABUTH 10 DAT, 2 g a.i./ha) | Herbicidal efficacy (Cyperus iria (CYPIR); CYPIR 21 DAT, 2 g a.i./ha)
40%: Herbicidal efficacy [%] against PHBPU 21 DAT ([1]; application rate 0.5 g a.i./ha, 21 DAT) | Herbicidal efficacy [%] against ERIBO 21 DAT [4, 10] | Herbicidal efficacy (Setaria viridis (SETVI); SETVI 10 DAT, 2 g a.i./ha) | Herbicidal efficacy (Cyperus iria (CYPIR); CYPIR 21 DAT, 0.5 g a.i./ha) | Herbicidal efficacy [%] against EPHHL 21 DAT ([6]; application rate 2 g a.i./ha)
80%: Herbicidal efficacy (Cyperus iria (CYPIR); CYPIR 10 DAT, 2 g a.i./ha)
10%: Herbicidal efficacy ([4]; ERIBO 10 DAT, 2 g a.i./ha) | Herbicidal efficacy (Setaria viridis (SETVI); SETVI 21 DAT, 0.5 g a.i./ha) | Herbicidal efficacy ([5]; ABUTH 21 DAT, 0.5 g a.i./ha) | Herbicidal efficacy ([6]; 2 g a.i./ha) | Herbicidal efficacy (Emex australis (EMEAU); EMEAU 21 DAT, 2 g a.i./ha) | Herbicidal efficacy [%] against SORHA 21 DAT ([8]; application rate 2 g a.i./ha) | Herbicidal efficacy [%] against XANST 21 DAT ([9]; application rate 0.5 g a.i./ha)
50%: Herbicidal efficacy (Cyperus iria (CYPIR); CYPIR 10 DAT, 0.5 g a.i./ha)
30%: Herbicidal efficacy [%] against XANST 21 DAT ([2]; application rate 0.5 g a.i./ha, 21 DAT, table with flufenoximacil) | Herbicidal efficacy [%] against XANST 10 DAT ([2]; application rate 2 g a.i./ha) | Herbicidal efficacy [%] against POLCO 21 DAT [3, 10] | Herbicidal efficacy ([5]; ABUTH 21 DAT, 2 g a.i./ha) | Herbicidal efficacy [%] against EPHHL 21 DAT ([6]; application rate 0.5 g a.i./ha) | Herbicidal efficacy ([7]; BRAPP 10 DAT, 2 g a.i./ha) | Herbicidal efficacy [%] against EMEAU 10 DAT (Emex australis (EMEAU); application rate 0.5 g a.i./ha, 10 DAT)

CCn1ncc(C(=O)c2ccc(S(C)(=O)=O)c(COCC(F)(F)F)c2Cl)c1OC(=O)c1cn(C)nc1C [fenpyrazone]
10%: Herbicidal efficacy ([3]; POLCO 21 DAT, 20 g a.i./ha) | Herbicidal efficacy (Cyperus iria (CYPIR); CYPIR 21 DAT, 20 g a.i./ha) | Herbicidal efficacy ([7]; BRAPP 21 DAT, 5 g a.i./ha) | Herbicidal efficacy [%] against SORHA 21 DAT ([8]; application rate 5 g a.i./ha)
80%: Herbicidal efficacy ([4]; ERIBO 21 DAT, 5 g a.i./ha) | Herbicidal efficacy ([4]; ERIBO 21 DAT, 20 g a.i./ha)
88%: Herbicidal efficacy [%] against XANST 10 DAT ([2]; application rate 20 g a.i./ha)
20%: Herbicidal efficacy (Setaria viridis (SETVI); SETVI 21 DAT, 5 g a.i./ha) | Herbicidal efficacy (Setaria viridis (SETVI); SETVI 21 DAT, 20 g a.i./ha) | Herbicidal efficacy (Cyperus iria (CYPIR); CYPIR 10 DAT, 20 g a.i./ha) | Herbicidal efficacy ([7]; BRAPP 21 DAT, 20 g a.i./ha) | Herbicidal efficacy [%] against SORHA 10 DAT ([8]; application rate 5 g a.i./ha) | Herbicidal efficacy [%] against SORHA 21 DAT ([8]; application rate 20 g a.i./ha)
70%: Herbicidal efficacy [%] against XANST 21 DAT ([9]; application rate 20 g a.i./ha)
75%: Herbicidal efficacy ([7]; BRAPP 10 DAT, 20 g a.i./ha)
0%: Herbicidal efficacy ([1]; PHBPU 10 DAT, 5 g a.i./ha) | Herbicidal efficacy ([1]; PHBPU 21 DAT, 5 g a.i./ha) | Herbicidal efficacy ([3]; POLCO 10 DAT, 5 g a.i./ha) | Herbicidal efficacy ([3]; POLCO 21 DAT, 5 g a.i./ha) | Herbicidal efficacy (Emex australis (EMEAU); EMEAU 21 DAT, 20 g a.i./ha)
30%: Herbicidal efficacy (Setaria viridis (SETVI); SETVI 10 DAT, 5 g a.i./ha) | Herbicidal efficacy ([5]; ABUTH 21 DAT, 20 g a.i./ha) | Herbicidal efficacy (Cyperus iria (CYPIR); CYPIR 10 DAT, 5 g a.i./ha) | Herbicidal efficacy (Cyperus iria (CYPIR); CYPIR 21 DAT, 5 g a.i./ha) | Herbicidal efficacy ([7]; BRAPP 10 DAT, 5 g a.i./ha) | Herbicidal efficacy [%] against SORHA 10 DAT ([8]; application rate 20 g a.i./ha)
50%: Herbicidal efficacy (Setaria viridis (SETVI); SETVI 10 DAT, 20 g a.i./ha)
